Results taken from PMC7156458, “Synthetic biology based construction of biological activity-related library of fungal decalin-containing diterpenoid pyrones” (Nature Communications, 2020).

Molecular target: Aβ42 (Homo sapiens, UniProt P05067)
Assay: Th-T (thioflavin-T) assay of Aβ42 aggregation
Assay type: biochemical
Conditions: for Th-T fluorescence, mean of three wells: compound at 50

Chain of Aβ42 (P05067 672-713): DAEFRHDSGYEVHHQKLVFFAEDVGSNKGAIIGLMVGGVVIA

## C=C1CC[C@@H]2[C@](C)(CC[C@H]3O[C@H](C=C(C)C)C[C@@]23C)[C@@H]1Cc1c(OC)oc(CO)c(C)c1=O [Compound 20]
Reading M54 of time course
  Th-T fluorescence, mean of three wells: 2.134
Reading M55 of time course
  Th-T fluorescence, mean of three wells: 2.09
Reading M56 of time course
  Th-T fluorescence, mean of three wells: 2.129
Reading M57 of time course
  Th-T fluorescence, mean of three wells: 2.102
Reading M58 of time course
  Th-T fluorescence, mean of three wells: 2.115
Reading M59 of time course
  Th-T fluorescence, mean of three wells: 2.0923
Reading M60 of time course
  Th-T fluorescence, mean of three wells: 2.089
Reading M61 of time course
  Th-T fluorescence, mean of three wells: 2.104
Reading M62 of time course
  Th-T fluorescence, mean of three wells: 2.094
Concentration 10, unit not given, time-course reading M129
  Th-T fluorescence of Aβ42 with compound, mean of three wells (Fig. 7a source data): 3.179
Concentration 10, unit not given, time-course reading M130
  Th-T fluorescence of Aβ42 with compound, mean of three wells (Fig. 7a source data): 3.204
Concentration 10, unit not given, time-course reading M131
  Th-T fluorescence of Aβ42 with compound, mean of three wells (Fig. 7a source data): 3.189
Concentration 10, unit not given, time-course reading M132
  Th-T fluorescence of Aβ42 with compound, mean of three wells (Fig. 7a source data): 3.188
Concentration 10, unit not given, time-course reading M133
  Th-T fluorescence of Aβ42 with compound, mean of three wells (Fig. 7a source data): 3.166
Concentration 10, unit not given, time-course reading M134
  Th-T fluorescence of Aβ42 with compound, mean of three wells (Fig. 7a source data): 3.1894
Concentration 10, unit not given, time-course reading M135
  Th-T fluorescence of Aβ42 with compound, mean of three wells (Fig. 7a source data): 3.162
Concentration 10, unit not given, time-course reading M136
  Th-T fluorescence of Aβ42 with compound, mean of three wells (Fig. 7a source data): 3.159
Concentration 10, unit not given, time-course reading M137
  Th-T fluorescence of Aβ42 with compound, mean of three wells (Fig. 7a source data): 3.15
Concentration 10, unit not given, time-course reading M138
  Th-T fluorescence of Aβ42 with compound, mean of three wells (Fig. 7a source data): 3.16
Concentration 10, unit not given, time-course reading M139
  Th-T fluorescence of Aβ42 with compound, mean of three wells (Fig. 7a source data): 3.169
Concentration 10, unit not given, time-course reading M140
  Th-T fluorescence of Aβ42 with compound, mean of three wells (Fig. 7a source data): 3.158
Concentration 10, unit not given, time-course reading M141
  Th-T fluorescence of Aβ42 with compound, mean of three wells (Fig. 7a source data): 3.147
Concentration 10, unit not given, time-course reading M142
  Th-T fluorescence of Aβ42 with compound, mean of three wells (Fig. 7a source data): 3.131
Concentration 10, unit not given, time-course reading M143
  Th-T fluorescence of Aβ42 with compound, mean of three wells (Fig. 7a source data): 3.135
Concentration 10, unit not given, time-course reading M144
  Th-T fluorescence of Aβ42 with compound, mean of three wells (Fig. 7a source data): 3.139
Concentration 10, unit not given, time-course reading M145
  Th-T fluorescence of Aβ42 with compound, mean of three wells (Fig. 7a source data): 3.1201
Concentration 20, unit not given, time-course reading M129
  Th-T fluorescence of Aβ42 with compound, mean of three wells (Fig. 7a source data): 3.1
Concentration 20, unit not given, time-course reading M130
  Th-T fluorescence of Aβ42 with compound, mean of three wells (Fig. 7a source data): 3.095
Concentration 20, unit not given, time-course reading M131
  Th-T fluorescence of Aβ42 with compound, mean of three wells (Fig. 7a source data): 3.098
Concentration 20, unit not given, time-course reading M132
  Th-T fluorescence of Aβ42 with compound, mean of three wells (Fig. 7a source data): 3.079
Concentration 20, unit not given, time-course reading M133
  Th-T fluorescence of Aβ42 with compound, mean of three wells (Fig. 7a source data): 3.072
Concentration 20, unit not given, time-course reading M134
  Th-T fluorescence of Aβ42 with compound, mean of three wells (Fig. 7a source data): 3.073
Concentration 20, unit not given, time-course reading M135
  Th-T fluorescence of Aβ42 with compound, mean of three wells (Fig. 7a source data): 3.076
Concentration 20, unit not given, time-course reading M136
  Th-T fluorescence of Aβ42 with compound, mean of three wells (Fig. 7a source data): 3.0605
Concentration 20, unit not given, time-course reading M137
  Th-T fluorescence of Aβ42 with compound, mean of three wells (Fig. 7a source data): 3.049
Concentration 20, unit not given, time-course reading M138
  Th-T fluorescence of Aβ42 with compound, mean of three wells (Fig. 7a source data): 3.042
Concentration 20, unit not given, time-course reading M139
  Th-T fluorescence of Aβ42 with compound, mean of three wells (Fig. 7a source data): 3.041
Concentration 20, unit not given, time-course reading M140
  Th-T fluorescence of Aβ42 with compound, mean of three wells (Fig. 7a source data): 3.025
Concentration 20, unit not given, time-course reading M141
  Th-T fluorescence of Aβ42 with compound, mean of three wells (Fig. 7a source data): 3.02
Concentration 20, unit not given, time-course reading M142
  Th-T fluorescence of Aβ42 with compound, mean of three wells (Fig. 7a source data): 3.019
Concentration 20, unit not given, time-course reading M143
  Th-T fluorescence of Aβ42 with compound, mean of three wells (Fig. 7a source data): 3.013
Concentration 20, unit not given, time-course reading M144
  Th-T fluorescence of Aβ42 with compound, mean of three wells (Fig. 7a source data): 3.009
Concentration 20, unit not given, time-course reading M145
  Th-T fluorescence of Aβ42 with compound, mean of three wells (Fig. 7a source data): 2.993
Concentration 50, unit not given, time-course reading M129
  Th-T fluorescence of Aβ42 with compound, mean of three wells (Fig. 7a source data): 2.106
Concentration 50, unit not given, time-course reading M130
  Th-T fluorescence of Aβ42 with compound, mean of three wells (Fig. 7a source data): 2.116
Concentration 50, unit not given, time-course reading M131
  Th-T fluorescence of Aβ42 with compound, mean of three wells (Fig. 7a source data): 2.114
Concentration 50, unit not given, time-course reading M132
  Th-T fluorescence of Aβ42 with compound, mean of three wells (Fig. 7a source data): 2.119
Concentration 50, unit not given, time-course reading M133
  Th-T fluorescence of Aβ42 with compound, mean of three wells (Fig. 7a source data): 2.114
Concentration 50, unit not given, time-course reading M134
  Th-T fluorescence of Aβ42 with compound, mean of three wells (Fig. 7a source data): 2.123
Concentration 50, unit not given, time-course reading M135
  Th-T fluorescence of Aβ42 with compound, mean of three wells (Fig. 7a source data): 2.118
Concentration 50, unit not given, time-course reading M136
  Th-T fluorescence of Aβ42 with compound, mean of three wells (Fig. 7a source data): 2.117
Concentration 50, unit not given, time-course reading M137
  Th-T fluorescence of Aβ42 with compound, mean of three wells (Fig. 7a source data): 2.122
Concentration 50, unit not given, time-course reading M138
  Th-T fluorescence of Aβ42 with compound, mean of three wells (Fig. 7a source data): 2.119
Concentration 50, unit not given, time-course reading M139
  Th-T fluorescence of Aβ42 with compound, mean of three wells (Fig. 7a source data): 2.116
Concentration 50, unit not given, time-course reading M140
  Th-T fluorescence of Aβ42 with compound, mean of three wells (Fig. 7a source data): 2.117
Concentration 50, unit not given, time-course reading M141
  Th-T fluorescence of Aβ42 with compound, mean of three wells (Fig. 7a source data): 2.123
Concentration 50, unit not given, time-course reading M142
  Th-T fluorescence of Aβ42 with compound, mean of three wells (Fig. 7a source data): 2.118
